# Test results reported in publication PMC11892739, “Site-specific molecular glues for the 14-3-3/Tau pS214 protein–protein interaction via reversible covalent imine tethering” (RSC Medicinal Chemistry, 2025).
# Target: T1, 14-3-3ζ/Tau pS2 peptide (Homo sapiens, UniProt P63104)
# T1 construct: made in house; host or cells: NiCo21 (DE3) E. coli
# T1 sequence (P63104 1-245): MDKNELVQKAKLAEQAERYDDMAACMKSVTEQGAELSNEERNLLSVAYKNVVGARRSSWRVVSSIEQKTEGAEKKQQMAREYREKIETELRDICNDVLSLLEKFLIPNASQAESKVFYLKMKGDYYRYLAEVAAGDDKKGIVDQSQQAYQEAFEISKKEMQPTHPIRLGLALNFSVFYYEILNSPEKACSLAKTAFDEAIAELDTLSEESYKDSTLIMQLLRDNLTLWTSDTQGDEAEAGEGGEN
# Assay: Differential scanning fluorimetry of 14-3-3 with Tau pS2 peptide and compounds
# Assay type: binding
# Settings: compound 30-fold compared to 14-3-3ζ (75 μM), Tau pS2 peptide 25 μM, 14-3-3 2.5 μM; read-out: additional increase in melting temperature relative to the binary 14-3-3ζ/Tau pS2 peptide system
# Protocol: Fig. 3 a Dose–response fluorescence anisotropy data of compound titrations to 10 nM FITC-labeled Tau pS2 peptide and 100 nM 14-3-3ζ. […] Mean of three individually performed experiments (see ESI ^† Fig. S8 for the protein titrations). e Differential scanning fluorimetry assay results. Identified melting temperatures (Tm) of 14-3-3γ alone (2.5 μM) and in the presence of Tau pS2 peptide (25 μM) and additionally with selected compounds (75 μM).
# As an orthogonal method to profile the PPI stabilizing activity of selected compounds, differential scanning fluorimetry (DSF) assays were performed (Fig. 3e). […] Upon addition of compounds (1, 11, 13–14, and 20–22) to this PPI complex (30-fold compared to 14-3-3ζ), an additional increase in melting temperature between 0.9 °C and 2.1 °C was observed relative to the binary 14-3-3ζ/Tau pS2 peptide system. These observations are in agreement with the stabilization observed in the FA data and strongly testify to the molecular glue effect of our compound, by enhancing the stability of the PPI complex. […]
# chromatography (HisTrap high performance cartridges, Cytiva). Typically two 5 mL columns were used for a 2 L culture in which the lysate was loaded on the column, washed with 10 CV wash buffer (50 mM Hepes, pH 8.0, 300 mM NaCl, 25 mM imidazole, 2 mM βME), and eluted with several fractions (2-4 CV) of elution buffer (50 mM Hepes, pH 8.0, 300 mM NaCl, 250 mM imidazole, 2 mM βME). Fractions containing the 14-3-3 protein were combined and dialyzed into 25 mM HEPES pH 8.0, 200 mM NaCl, 10 mM MgCl2, 2 mM βME, followed by dialysis into 25 mM HEPES, 100 mM NaCl, 10 mM MgCl2, 500 μM TCEP (adjusted to pH 8.0). Dialyzed protein was concentrated to ∼40 mg/mL, analyzed by Q -Tof LC/MS, and aliquots were flash -frozen for storage at −80 °C. For 14 -3-3σ∆c, 1 mg TEV per 100 mg purified protein was added to the dialysis to remove the purification tag. The cleaved sample was then again loaded on a 10 mL Ni-NTA column to separate the cleaved product from the expression tag and residual uncleaved protein. The flowthrough was loade d on a Superdex 75 pg 16/60 size exclusion column (GE Life Sciences) using 25 mM HEPES, 100 mM NaCl, 10 mM MgCl2, 500 μM TCEP (adjusted to pH = 8.0) as running buffer. Fractions containing the 14 -3-3 protein were pooled and concentrated to ∼60 mg/mL, analyzed Q -Tof LC/MS, and aliquots were flash -frozen for storage at −80°C. […]
# The peptide screen was performed in a similar way as the 14-3-3ζ titration in the precence of compound.
# 14-3-3ζ was titrated in a 2-fold dilution series (starting at 400 µM 14-3-3ζ) to 100 nM of fluorescein-labeled peptides and 250 µM compound 18 (1% DMSO) in FA buffer (10 mM HEPES pH 7.4, 150 mM […]
# Data shown is the average of a scientific triplicate.
# Differential Scanning Fluorimetry (DSF)
# DSF was performed using 40 µl samples containing 2.5 µM 14 -3-3ζ, 25 µM Tau peptide (Tau pS2, Tau pS214 or Tau pS324), […] (1% DMSO) and 5x ProteoOrange (Lumiprobe, 5000x stock in DMSO) in 10 mM HEPES, 150 mM NaCl, 50 µM TCEP (pH 7.4). The samples were heated from 35 °C to 79°C at a rate of 0.3 °C per 15 s in a C FX96 Touch Real-Time PCR Detection System (Bio -Rad). Fluorescence intensity was determined using excitation ( λem=525/20 nm) and emission ( λex=570/20 nm) filters.
# Based on these melting curves, the negative derivative melting curve is obtained from which the melting temperature Tm was determined. All described melting temperatures are based on two or three independent experiments, from which the average and standard deviations were determined.
# X-ray crystallography data collection and refinement
# For x-ray crystallography, a C-terminally truncated 14-3-3σ protein (truncated after T231 to reduce flexibility) was used. This 14-3-3σ∆C was preincubated with Tau pS214 in complexation buffer (20 mM HEPES pH 7.5, 2 mM MgCl2 and 100 μM TCEP) in a 1:1.5 molar stoichiometry (protein:peptide) at a final protein concentration of 10.0 mg/mL. […]
row,ΔTm,Compound
1,0.9 to 2.1 °C,O=Cc1ccc(-n2ccnc2-c2ccc(Cl)cc2)cc1Br [Compound 14]
2,0.9 to 2.1 °C,Cc1ccc(-c2nccn2-c2ccc(C=O)c(Br)c2)cc1 [Compound 11]
3,0.9 to 2.1 °C,O=Cc1ccc(-n2ccnc2-c2ccc(OC(F)(F)F)cc2)cc1Br [Compound 21]
4,0.9 to 2.1 °C,N#Cc1ccc(-c2nccn2-c2ccc(C=O)c(Br)c2)cc1 [Compound 22]
5,0.9 to 2.1 °C,O=Cc1ccc(-n2ccnc2-c2ccccc2)cc1Br [Compound 1]
6,0.9 to 2.1 °C,O=Cc1ccc(-n2ccnc2-c2ccc(C(F)(F)F)cc2)cc1Br [Compound 20]
7,0.9 to 2.1 °C,O=Cc1ccc(-n2ccnc2-c2ccc(F)cc2)cc1Br [Compound 13]
